Test: Stability as a function of pH 2-6 (1 mg/mL, 0.25 mg/mL at pH 6; 10 mM citric acid and glycine)
Type: physicochemical
Design: growth in impurities / Assay: unit not given here
Conditions: for Impurities: in %
Method: Buffer solutions containing ca. 10 mM each of citric acid and glycine in the pH range 2-6 were prepared by titrating 250 mL of a single stock containing both buffer agents with 1N NaOH/1N HCl and removing 50 mL aliquots at predetermined pH values. XXXVI solutions at 1 mg/mL were prepared in buffers of pH 2-5 by dissolving ˜25 mg of XXXVI in ˜23 mL of a given buffer, adjusting the pH to the target and making up the volume to 25.0 mL in a volumetric flask. (XXXVI) solution at pH 6 was prepared similarly, but at a lower drug concentration of 0.25 mg/mL using 6.68 mg of (XXXVI).
Each of the buffered XXXV solutions was filtered through a 0.2 μm polyether sulfone syringe filter into a volumetric flask, which had been previously rinsed with 70% ethanol and dried in a laminar flow hood. Following filtration, each buffered (XXXV) solution was split into 10 aliquots (9 aliquots of 2.5 mL each and 1 aliquot of 2 mL) in 5 mL serum vials previously rinsed with 70% ethanol and dried in a laminar flow hood. Filtration and preparation of aliquots were performed in a laminar flow hood. The 2 mL aliquot of each buffered (XXXV) solution was submitted for T0 analysis (HPLC assay and related substances).
Of the nine 2.5 mL aliquots, three aliquots were stored at each 40° C. and 60° C., two aliquots were stored at 25° C. and one aliquot was stored at −70° C. Samples stored at 40° C. and at 60° C. were evaluated for physical appearance, pH, assay and related substances after 1 week, 2 weeks and 4 weeks of storage. Samples at 25° C. and −70° C. served as controls to be analyzed if necessary.

Compound: CCCNc1nc(NCCC)nc(N(C)OC)n1 [XXXV, N-(4,6-Bis-n-propylamino-[1,3,5]triazin-2-yl)-N,O-dimethyl-hydroxylamine]
- physical appearance (all samples, up to 4 weeks at 40° C. and 60° C.): remained clear, colorless and particle free
- stability at pH 2 compared to remaining pH values (assay and impurities data): significantly less stable at pH 2
- growth in impurities (pH 3-6, 40° C. and 60° C.): > 0.2
- Assay (target pH 2, 40° C. 1 wk): 0.997
- pH (target pH 2, 40° C. 1 wk): 2.02
- Impurities (target pH 2, 40° C. 1 wk): 0.58
- Assay (target pH 2, 40° C. 2 wk): 0.975
- pH (target pH 2, 40° C. 2 wk): 1.98
- Impurities (target pH 2, 40° C. 2 wk): 1.48
- Assay (target pH 2, 40° C. 4 wk): 0.970
- pH (target pH 2, 40° C. 4 wk): 2.00
- Impurities (target pH 2, 40° C. 4 wk): 2.49
- Assay (target pH 2, 60° C. 1 wk): 0.929
- pH (target pH 2, 60° C. 1 wk): 2.00
- Impurities (target pH 2, 60° C. 1 wk): 3.83
- Assay (target pH 2, 60° C. 2 wk): 0.754
- pH (target pH 2, 60° C. 2 wk): 1.99
- Impurities (target pH 2, 60° C. 2 wk): 9.89
- Assay (target pH 2, 60° C. 4 wk): 0.754
- pH (target pH 2, 60° C. 4 wk): 2.01
- Impurities (target pH 2, 60° C. 4 wk): 14.34
- Assay (target pH 2, initial): 1.02
- pH (target pH 2, initial): 1.96
- Assay (target pH 3, 40° C. 1 wk): 0.984
- pH (target pH 3, 40° C. 1 wk): 3.05
- Assay (target pH 3, 40° C. 2 wk): 0.987
- pH (target pH 3, 40° C. 2 wk): 3.05
- Impurities (target pH 3, 40° C. 2 wk): 0.19
- Assay (target pH 3, 40° C. 4 wk): 0.991
- pH (target pH 3, 40° C. 4 wk): 3.06
- Impurities (target pH 3, 40° C. 4 wk): 0.41
- Assay (target pH 3, 60° C. 1 wk): 0.971
- pH (target pH 3, 60° C. 1 wk): 3.07
- Impurities (target pH 3, 60° C. 1 wk): 0.71
- Assay (target pH 3, 60° C. 2 wk): 0.952
- pH (target pH 3, 60° C. 2 wk): 3.03
- Impurities (target pH 3, 60° C. 2 wk): 1.20
- Assay (target pH 3, 60° C. 4 wk): 0.952
- pH (target pH 3, 60° C. 4 wk): 3.07
- Impurities (target pH 3, 60° C. 4 wk): 2.19
- Assay (target pH 3, initial): 0.984
- pH (target pH 3, initial): 3.02
- Assay (target pH 4, 40° C. 1 wk): 0.999
- pH (target pH 4, 40° C. 1 wk): 3.94
- Assay (target pH 4, 40° C. 2 wk): 1.006
- pH (target pH 4, 40° C. 2 wk): 3.96
- Impurities (target pH 4, 40° C. 2 wk): 0.17
- Assay (target pH 4, 40° C. 4 wk): 1.012
- pH (target pH 4, 40° C. 4 wk): 3.96
- Impurities (target pH 4, 40° C. 4 wk): 0.22
- Assay (target pH 4, 60° C. 1 wk): 0.992
- pH (target pH 4, 60° C. 1 wk): 3.94
- Assay (target pH 4, 60° C. 2 wk): 0.979
- pH (target pH 4, 60° C. 2 wk): 3.96
- Impurities (target pH 4, 60° C. 2 wk): 0.52
- Assay (target pH 4, 60° C. 4 wk): 0.979
- pH (target pH 4, 60° C. 4 wk): 3.97
- Impurities (target pH 4, 60° C. 4 wk): 1.02
- Assay (target pH 4, initial): 1.01
- pH (target pH 4, initial): 4.00
- Assay (target pH 5, 40° C. 1 wk): 0.989
- pH (target pH 5, 40° C. 1 wk): 4.90
- Assay (target pH 5, 40° C. 2 wk): 0.992
- pH (target pH 5, 40° C. 2 wk): 4.95
- Impurities (target pH 5, 40° C. 2 wk): 0.26
- Assay (target pH 5, 40° C. 4 wk): 0.977
- pH (target pH 5, 40° C. 4 wk): 4.97
- Assay (target pH 5, 60° C. 1 wk): 0.977
- pH (target pH 5, 60° C. 1 wk): 4.92
- Assay (target pH 5, 60° C. 2 wk): 0.947
- pH (target pH 5, 60° C. 2 wk): 4.93
- Impurities (target pH 5, 60° C. 2 wk): 0.62
- Assay (target pH 5, 60° C. 4 wk): 0.947
- pH (target pH 5, 60° C. 4 wk): 4.98
- Impurities (target pH 5, 60° C. 4 wk): 1.10
- Assay (target pH 5, initial): 1.01
- pH (target pH 5, initial): 5.03
- Assay (target pH 6, 40° C. 1 wk): 0.257
- pH (target pH 6, 40° C. 1 wk): 5.88
- Assay (target pH 6, 40° C. 2 wk): 0.253
- pH (target pH 6, 40° C. 2 wk): 6.02
- Impurities (target pH 6, 40° C. 2 wk): 0.25
- Assay (target pH 6, 40° C. 4 wk): 0.251
- pH (target pH 6, 40° C. 4 wk): 5.98
- Impurities (target pH 6, 40° C. 4 wk): 0.28
- Assay (target pH 6, 60° C. 1 wk): 0.247
- pH (target pH 6, 60° C. 1 wk): 5.87
- Impurities (target pH 6, 60° C. 1 wk): 0.56
- Assay (target pH 6, 60° C. 2 wk): 0.234
- pH (target pH 6, 60° C. 2 wk): 6.03
- Impurities (target pH 6, 60° C. 2 wk): 0.87
- Assay (target pH 6, 60° C. 4 wk): 0.234
- pH (target pH 6, 60° C. 4 wk): 6.01
- Impurities (target pH 6, 60° C. 4 wk): 1.65
- Assay (target pH 6, initial): 0.260
- pH (target pH 6, initial): 6.05

— patent US9162992B2, “Compounds and compositions for treatment of breathing control disorders or diseases” (GALLEON PHARMACEUTICALS, INC., priority 2010, dated 2015)
